Patent US9925189B2, “Heterocyclic receptor agonists for the treatment of diabetes and metabolic disorders” (CymaBay Therapeutics, Inc., priority 2006, dated 2018)

Target: T1, IC-GPCR2 (Homo sapiens, UniProt Q8TDV5, S309L)
T1 construct: expressed in transfected cells
T1 sequence (Q8TDV5 1-335 S309L): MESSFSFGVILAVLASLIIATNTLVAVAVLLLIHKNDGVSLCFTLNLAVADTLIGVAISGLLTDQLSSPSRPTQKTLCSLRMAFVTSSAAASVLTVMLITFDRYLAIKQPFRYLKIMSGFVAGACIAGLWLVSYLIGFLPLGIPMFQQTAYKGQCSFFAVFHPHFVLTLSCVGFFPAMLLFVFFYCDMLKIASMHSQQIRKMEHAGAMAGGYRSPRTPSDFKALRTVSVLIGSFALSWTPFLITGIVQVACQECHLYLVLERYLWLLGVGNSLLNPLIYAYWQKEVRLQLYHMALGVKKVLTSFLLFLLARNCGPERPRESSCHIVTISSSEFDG
Experiment: Stimulation of cAMP in CHO cells stably expressing IC-GPCR2 (HTRF cAMP assay)
Type: cell-based
Conditions: 0.5 h, 30 minutes, IC-GPCR2 stably expressing CHO cells, read-out: Activity at 10 uM (% change in FRET signal from DMSO control)
Description: This assay was developed using a stable cell line expressing IC-GPCR-2, generated as follows. IC-GPCR2 (SEQ ID NO:1) was cloned into Gateway pDEST 40vector (Invitrogen), using the Gateway cloning system (invitrogen) according to the manufacturer's instructions. A stable cell line was generated by transfecting a 10 cm plate of CHO cells (source) with 8 ug of this construct using Transit-CHO transfection kit (Mirus). CHO cells were plated the day prior to transfection at a density of 3,000,000 cells/plate. Clones were selected using the antibiotic G418 at 500 ug/ml. 23 clones were picked and assayed for the expression of the receptor by measuring changes in intracellular cAMP levels in response to an IC-GPCR2 agonist.
To measure cAMP activity in response to IC-GPCR2 agonist, the clones were plated in 96 well plates at 17500 cells per well. On the day after plating, cells were incubated with the IC-CPCR2 agonist at […] for 30 minutes in Ham's F12 Media (Gibco) with 0.04% DMSO. cAMP was measured using the cAMP dynamic kit from Cis Bio (Bedford, Mass.) according to the manufacturer's instructions. Briefly, cells were lysed, and cAMP levels determined by competitive immunoassay using D2 labeled cAMP, and europium cryptate tagged anti cAMP antibody. When in close proximity, the D2 and europium cryptate undergo fluorescence resonance energy transfer (FRET), which is measured as a fluorescence ratio (665 nm/620 nm). Unlabelled cAMP in the cell lysate competed with the D2 labeled cAMP for the europium crypate labeled antibody. The resulting decrease in FRET signal corresponded to intracellular cAMP levels. Fluorescence was read on a BMG Labtech PHERAstar, software version 1.50.
Compounds were dissolved in 100% DMSO to a concentration of […] to provide stock solutions. To determine activity against IC-GPCR2, compounds were incubated with IC-GPCR2 stably expressing cells (described above), at 6-8 concentrations ranging from 0.00003 to 10 micromolar, in 96 well plates, in 50 ul of Hams F12 media for 30 minutes. Cells were plated at 17500 cells per well 1 day before running the assay. All compounds were also screened against the parental CHO cells. cAMP was measured using the cAMP dynamic kit from Cis Bio (Bedford, Mass.), according to the manufacturer's instructions. Briefly, cells were lysed and cAMP levels determined by competitive immunoassay using D2 labeled cAMP, and europium cryptate tagged anti cAMP antibody. When in close proximity, the D2 and europium cryptate undergo fluorescence resonance energy transfer (FRET), which is measured as a fluorescence ratio (665 nm/620 nm). Unlabelled cAMP in the cell lysate competed with the D2 labeled cAMP for the europium crypate labeled antibody. The resulting decrease in FRET signal corresponded to intracellular cAMP levels.
Activities of compounds disclosed in Table 1 and Table 2 below are expressed as the % change in FRET signal from DMSO control. “*” no activity observed when tested at 10 micromolar but no higher concentrations were tested. NT indicates the compound was not tested at the indicated concentration.

Row | activation at 10 µM [%] | Compound
1 | 14 | CC(C)CS(=O)(=O)N1CCN(c2nc(COc3ccc(S(C)(=O)=O)cc3)cs2)CC1 [Example 92, 1-[4-(4-Methanesulfonyl-phenoxymethyl)-thiazol-2-yl]-4-(2-methyl-propane-1-sulfonyl)-piperazine]
2 | 74 | CCc1cnc(N2CCC(c3nc(COc4ccc(N5CCOCC5)cc4)cs3)CC2)nc1 [Example 191, 4-(4-{2-[1-(5-Ethyl-pyrimidin-2-yl)-piperidin-4-yl]-thiazol-4-ylmethoxy}-phenyl)-morpholine]
3 | 23 | CS(=O)(=O)c1ccc(OCc2csc(C3CCN(C(=O)OC45CC6CC(CC(C6)C4)C5)CC3)n2)cc1 [Example 25, 4-[4-(4-Methanesulfonyl-phenoxymethyl)-thiazol-2-yl]-piperidine-1-carboxylic acid adamantan-1-yl ester]
4 | 43 | CC(C)(C)OC(=O)N1CCC(C)(c2nc(COc3ccc(S(C)(=O)=O)cc3)cs2)CC1 [Example 78, 4-[4-(4-Methanesulfonyl-phenoxymethyl)-thiazol-2-yl]-4-methyl-piperidine-1-carboxylic acid tert-butyl ester]
5 | 24 | CC(C)(C)OC(=O)N1CCC(c2nc(COc3ccc(C(=O)O)cc3)cs2)CC1 [Example 131, 4-[4-(4-Carboxy-phenoxymethyl)-thiazol-2-yl]-piperidine-1-carboxylic acid tert-butyl ester]
6 | 95 | CCCCC(CC)COC(=O)N1CCC(c2nc(COc3ccc(-n4cnnn4)cc3)cs2)CC1 (centres unmarked) [Example 36, 4-[4-(4-Tetrazol-1-yl-phenoxymethyl)-thiazol-2-yl]-piperidine-1-carboxylic acid 2-ethyl-hexyl ester]

The next lines start with the compound.

Row | Compound | activation at 10 µM [%]
7 | FC(F)(F)c1cnc(N2CCC(c3nc(COc4ccc(-n5cnnn5)cc4Cl)cs3)CC2)nc1 [Example 166, 2-{4-[4-(2-Chloro-4-tetrazol-1-yl-phenoxymethyl)-thiazol-2-yl]-piperidin-1-yl}-5-trifluoromethyl-pyrimidine] | 74
8 | Cc1ccc(N2CCC(c3nc(COc4ccc(-n5cnnn5)cc4)cs3)CC2)nc1 [Example 69, 5′-Methyl-4-[4-(4-tetrazol-1-yl-phenoxymethyl)-thiazol-2-yl]-3,4,5,6-tetrahydro-2H-[1,2′]bipyridinyl] | 74
9 | CC(C)(C)OCC(=O)N1CCC(c2nc(COc3ccc(-n4cnnn4)cc3)cs2)CC1 [Example 157, 2-tert-Butoxy-1-{4-[4-(4-tetrazol-1-yl-phenoxymethyl)-thiazol-2-yl]-piperidin-1-yl}-ethanone] | 57
10 | CCC(=O)c1cc(F)c(OCc2csc(C3CCN(C(=O)OC(C)(C)C)CC3)n2)c(F)c1 [Example 124, 4-[4-(2,6-Difluoro-4-propionyl-phenoxymethyl)-thiazol-2-yl]-piperidine-1-carboxylic acid tert-butyl ester] | 80
11 | Fc1ccnc(N2CCC(c3nc(COc4ccc(-n5cnnn5)cc4)cs3)CC2)n1 [Example 178, 4-Fluoro-2-{4-[4-(4-tetrazol-1-yl-phenoxymethyl)-thiazol-2-yl]-piperidin-1-yl}-pyrimidine] | 39
12 | O=C(OC1CCCCC1)N1CCC(c2nc(COc3ccc(-n4cnnn4)cc3)cs2)CC1 [Example 147, 4-[4-(4-Tetrazol-1-yl-phenoxymethyl)-thiazol-2-yl]-piperidine-1-carboxylic acid cyclohexyl ester] | 56
13 | CC(C)(C)OC(=O)N1CCC(c2nc(COc3ccccc3)cs2)CC1 [Example 137, 4-(4-Phenoxymethyl-thiazol-2-yl)-piperidine-1-carboxylic acid tert-butyl ester] | 35
14 | CCc1cnc(N2CCC(c3nc(CNc4ccc(-n5cnnn5)cc4)cs3)CC2)nc1 [Example 161, {2-[1-(5-Ethyl-pyrimidin-2-yl)-piperidin-4-yl]-thiazol-4-ylmethyl}-(4-tetrazol-1-yl-phenyl)-amine] | 79
